# Experiments:
# Format in all cases: cell-based
# [1] = tested on: Staphylococcus aureus ATCC 6538-P; test: Disk diffusion agar antimicrobial activity, S. aureus; conditions: 25 mg/ml, 37° C. for 24 hours, mean values; for zone of inhibition at 25000 µg/mL: Staphylococcus aureus, ATCC6538, 24 h, read-out: Bacterial and fungal growth inhibition zone diameter (mm), S. aureus
# Protocol: (§1) As used herein, “inhibition zone diameter” refers to a measurement that indicates how effective an antimicrobial is against a bacterium. The diameter of the zone of inhibition can be used to determine the level of sensitivity of the bacterium to the antimicrobial. In laboratory testing, such as the disk diffusion method (Kirby-Bauer test), a paper disk impregnated with the antimicrobial agent is placed on an agar plate inoculated with the microorganism. After incubation, the diameter of the clear zone (inhibition zone) around the disk is measured.
# (§2) The reaction conditions and mechanisms are described in subsequent examples. The successful fabrication of the testosterone-based thiazolidinone derivatives was confirmed by different analytical techniques. The antimicrobial activity of newly prepared testosterone-based thiazolidinone derivatives was evaluated against various microorganisms, including Staphylococcus aureus ATCC 6538-P, Escherichia coli ATCC 25933, Candida albicans ATCC 10231, and Aspergillus niger NRRL-A326.
# (§3) The antimicrobial activity of the synthesized testosterone-based thiazolidinone derivatives (compound (I), compound (II), and compound (III)) were assessed utilizing the disk diffusion agar methodology. Four representative microbial strains were selected for this study: Staphylococcus aureus ATCC 6538-P (Gram-positive), Escherichia coli ATCC 25933 (Gram-negative), Candida albicans ATCC 10231, and Aspergillus niger NRRL-A326. Nutrient agar plates were uniformly inoculated with 0.1 mL of a cell suspension at a density of […] to 10^6 cells/mL for both bacterial and yeast cultures. Following inoculation, samples were introduced onto the agar plates. The plates were subsequently incubated at refrigeration temperature (4° C.) for 2 to 4 hours to enhance the diffusion of the antimicrobial agents. Thereafter, the plates were incubated at 37° C. for 24 hours for bacterial growth and at 30° C. for 48 hours for yeast and fungal growth, maintaining an upright orientation to maximize the growth of the microorganisms. The antimicrobial activity of the testosterone-based thiazolidinone derivatives was quantified by measuring the diameter of the zone of inhibition, which was reported in millimeters (mm). The concentration of the tested testosterone-based thiazolidinone derivatives was 25 mg/ml. This experimental protocol was replicated multiple times, and the mean values of the observed readings were recorded.
# [2] = tested on: Aspergillus niger NRRL-A326; test: Disk diffusion agar antimicrobial activity, A. niger; conditions: 30° C. for 48 hours, mean values; for Bacterial and fungal growth inhibition zone diameter (mm), A. niger: 25 mg/ml; for zone of inhibition at 25000 µg/mL: Aspergillus niger, NRRLA326, 25 mg/ml, read-out: Bacterial and fungal growth inhibition zone diameter (mm), A. niger
# Protocol: as §1, §2, §3
# [3] = tested on: Candida albicans ATCC 10231; test: Disk diffusion agar antimicrobial activity, C. albicans; conditions: 25 mg/ml, 30° C. for 48 hours, mean values; for zone of inhibition at 25000 µg/mL: Candida albicans, ATCC10231, 48 h, read-out: Bacterial and fungal growth inhibition zone diameter (mm), C. albicans
# Protocol: as §1, §2, §3
# [4] = tested on: Escherichia coli ATCC 25933; test: Disk diffusion agar antimicrobial activity, E. coli; conditions: 25 mg/ml, 37° C. for 24 hours, mean values; for zone of inhibition at 25000 µg/mL: Escherichia coli, ATCC25933, 24 h, read-out: Bacterial and fungal growth inhibition zone diameter (mm), E. coli
# Protocol: as §1, §2, §3
# [5] = listed as compound III where Ar is C6H5
# [6] = listed as compound III where Ar is 4-ClC6H4
# [7] = listed as compound III where Ar is CH2C6H4
Compound,"Bacterial and fungal growth inhibition zone diameter (mm), S. aureus [1]","Bacterial and fungal growth inhibition zone diameter (mm), S. aureus [1, 5]","Bacterial and fungal growth inhibition zone diameter (mm), A. niger [2]","Bacterial and fungal growth inhibition zone diameter (mm), A. niger [2, 5]","Bacterial and fungal growth inhibition zone diameter (mm), C. albicans [3]","Bacterial and fungal growth inhibition zone diameter (mm), C. albicans [3, 5]","Bacterial and fungal growth inhibition zone diameter (mm), E. coli [4]","Bacterial and fungal growth inhibition zone diameter (mm), E. coli [4, 5]","Bacterial and fungal growth inhibition zone diameter (mm), S. aureus [1, 6]","Bacterial and fungal growth inhibition zone diameter (mm), A. niger [2, 6]","Bacterial and fungal growth inhibition zone diameter (mm), C. albicans [3, 6]","Bacterial and fungal growth inhibition zone diameter (mm), E. coli [4, 6]",zone of inhibition at 25000 µg/mL [1],zone of inhibition at 25000 µg/mL [2],zone of inhibition at 25000 µg/mL [3],zone of inhibition at 25000 µg/mL [4],"Bacterial and fungal growth inhibition zone diameter (mm), S. aureus [1, 7]","Bacterial and fungal growth inhibition zone diameter (mm), A. niger [2, 7]","Bacterial and fungal growth inhibition zone diameter (mm), C. albicans [3, 7]","Bacterial and fungal growth inhibition zone diameter (mm), E. coli [4, 7]"
CC12CCC(=NN=C3NC(=O)C(CC(=O)Nc4ccccc4)S3)C=C1CCC1C2CCC2(C)C(O)CCC12 (centres unmarked) [Compound III Ar = C6H5],35 mm,at least 35 mm,37 mm,at least 37 mm,36 mm,at least 36 mm,32 mm,at least 32 mm,–,–,–,–,–,–,–,–,–,–,–,–
CC12CCC(=NN=C3NC(=O)C(CC(=O)Nc4ccc(Cl)cc4)S3)C=C1CCC1C2CCC2(C)C(O)CCC12 (centres unmarked) [Compound III Ar = 4-ClC6H4],38 mm,–,43 mm,–,41 mm,–,39 mm,–,at least 38 mm,at least 43 mm,at least 41 mm,at least 39 mm,–,–,–,–,–,–,–,–
COC(=O)/C=C1/S/C(=N\N=C2\C=C3CC[C@H]4[C@@H]5CC[C@H](O)[C@@]5(C)CC[C@@H]4[C@@]3(C)CC2)NC1=O [Compound II],29 mm,–,–,–,29 mm,–,26 mm,–,–,–,–,–,≥ 29 mm,0 mm,≥ 29 mm,≥ 26 mm,–,–,–,–
CC12CCC(=NN=C3NC(=O)C(CC(=O)NCc4ccccc4)S3)C=C1CCC1C2CCC2(C)C(O)CCC12 (centres unmarked) [Compound III Ar = CH2C6H4],19 mm,–,44 mm,–,21 mm,–,17 mm,–,–,–,–,–,–,–,–,–,at least 19 mm,at least 44 mm,at least 21 mm,at least 17 mm
C[C@]12CC[C@H]3[C@@H](CCC4=C/C(=N/NC(N)=S)CC[C@@]43C)[C@@H]1CC[C@@H]2O [Compound I],–,–,–,–,–,–,–,–,–,–,–,–,0 mm,0 mm,0 mm,0 mm,–,–,–,–
